From paper PMC6259751, “Investigating Spectrum of Biological Activity of 4- and 5-Chloro-2-hydroxy-N-[2-(arylamino)-1-alkyl-2-oxoethyl]benzamides” (Molecules, 2011)
Converted amounts (≈) assume the structure as drawn. “And” between values parts separate entries of the source, which are not always exact repeats. Equal entries are not always repeated. Where two headings read alike, the source gives them in different places.

Legend:
[1] = Lipophilicity determination by RP-HPLC (capacity factor k / log k); format: physicochemical; conditions: C18 column, MeOH 70% / H2O 30%, isocratic
Method: Hydrophobicities (log P/Clog P) of compounds 8 and 9 were calculated using two commercially available programs (ChemOffice Ultra 10.0 and ACD/LogP) and measured by means of RP-HPLC determination of capacity factors k with subsequent calculation of log k. The procedure was performed under isocratic conditions with methanol as an organic modifier in the mobile phase using an end-capped non-polar C18 stationary RP column. The results are shown in Table 1 and illustrated in Figure 1.
A Waters Alliance 2695 XE HPLC separation module and a Waters Photodiode Array Detector 2996 (Waters Corp., Milford, MA, USA) were used. A Symmetry® C18 5 μm, 4.6 × 250 mm, Part No. WAT054275 (Waters Corp., Milford, MA, USA) chromatographic column was used. The HPLC separation process was monitored by Empower™ 2 Chromatography Data Software, Waters 2009 (Waters Corp., Milford, MA, USA). A mixture of MeOH p.a. (70%) and H2O-HPLC – Mili-Q Grade (30%) was used as a mobile phase. The total flow of the column was 1.0 mL/min, injection volume, 30 μL, column temperature, 30 °C and sample temperature, 10 °C. The detection wavelength of 210 nm was chosen. The KI methanolic solution was used for the dead time (tD) determination. Retention times (tR) were measured in minutes. The capacity factors k were calculated using the Empower™ 2 Chromatography Data Software according to formula k = (tR - tD)/tD, where tR is the retention time of the solute, whereas tD denotes the dead time obtained using an unretained analyte. Log k, calculated from the capacity factor k, is used as the lipophilicity index converted to log P scale.

[2] = tested on: Mycobacterium tuberculosis MTB CNCTC My 331/88; assay: In vitro antimycobacterial evaluation; format: cell-based; conditions: IC90 value
[3] = tested on: Mycobacterium avium MA CNCTC My 330/88; assay: In vitro antimycobacterial evaluation; format: cell-based; conditions: IC90 value
[4] = tested on: Mycobacterium kansasii MK CNCTC My 235/80; assay: In vitro antimycobacterial evaluation; format: cell-based; conditions: IC90 value
Candida tropicalis 156 = assay: In vitro antifungal susceptibility testing (broth microdilution); format: cell-based; conditions: M27-A2 for yeasts, IC80 value
[5] = tested on: Trichophyton mentagrophytes 445; assay: as above; format: cell-based
[6] = tested on: Staphylococcus aureus CCM 4516/08; assay: In vitro antibacterial susceptibility testing (broth microdilution); conditions: read-out: MIC SA
[7] = tested on: methicilin resistant Staphylococcus aureus H 5996/08; assay: as above
[8] = tested on: Staphylococcus epidermidis H 6966/08; assay: as above; conditions: read-out: MIC SE
[9] = tested on: Enterococcus sp. J 14365/08; assay: as above; conditions: read-out: MIC EF
[10] = 72h, M38-A for moulds, IC50 value, read-out: MIC TM
[11] = 120h, M38-A for moulds, IC50 value, read-out: MIC TM

| SMILES | log k [1] | MIC ([2]; 14h) | MIC ([2]; 21h) | MIC ([3]; 14h) | MIC ([3]; 21h) | MIC ([4]; 14h) | MIC ([4]; 21h) | MIC (Candida tropicalis 156; 24h) | MIC (Candida tropicalis 156; 48h) | MIC [5, 10] | MIC [5, 11] | MIC ([6]; CCM4516, 24 h) | MIC ([6]; CCM4516, 48 h) | MIC ([7]; MRSA, 24 h, read-out: MIC MRSA) | MIC ([7]; MRSA, 48 h, read-out: MIC MRSA) | MIC ([8]; H6966/08, 24 h) | MIC ([8]; H6966/08, 48 h) | MIC ([9]; SP.J14365/08, 24 h) | MIC ([9]; SP.J14365/08, 48 h) | also measured |
| --- | --- | --- | --- | --- | --- | --- | --- | --- | --- | --- | --- | --- | --- | --- | --- | --- | --- | --- | --- | --- |
| C[C@@H](NC(=O)c1cc(Cl)ccc1O)C(=O)Nc1cccc(Cl)c1 [8c, 5-chloro-N-{(1R)-2-[(3-chlorophenyl)amino]-1-methyl-2-oxoethyl}-2-hydroxybenzamide] | 0.41 and 0.4153 | 62.5 µM (≈ 22.1 µg/mL) | 125 µM (≈ 44.2 µg/mL) | 125 µM (≈ 44.2 µg/mL) | 250 µM (≈ 88.3 µg/mL) | 62.5 µM (≈ 22.1 µg/mL) | 62.5 µM (≈ 22.1 µg/mL) | 31.2 µM (≈ 11 µg/mL) | 125 µM (≈ 44.2 µg/mL) | 0.49 µM (≈ 0.173 µg/mL) | 0.49 µM (≈ 0.173 µg/mL) | > 500 µM | > 500 µM | > 500 µM | > 500 µM | > 500 µM | > 500 µM | > 500 µM | > 500 µM | MIC ([5]; conclusions, incubation time not stated, read-out: antifungal activity against Trichophyton mentagrophytes (MIC)): 0.49 µM (≈ 0.173 µg/mL) |
| O=C(N[C@H](Cc1ccccc1)C(=O)Nc1cccc(Cl)c1)c1cc(Cl)ccc1O [8g, N-{(1S/R)-1-benzyl-2-[(3-chlorophenyl)amino]-2-oxoethyl}-5-chloro-2-hydroxybenzamide] | 0.70 and 0.7066 | 62.5 µM (≈ 26.8 µg/mL) | 62.5 µM (≈ 26.8 µg/mL) | 32 µM (≈ 13.7 µg/mL) | 32 µM (≈ 13.7 µg/mL) | 62.5 µM (≈ 26.8 µg/mL) | 62.5 µM (≈ 26.8 µg/mL) | 31.2 µM (≈ 13.4 µg/mL) | 125 µM (≈ 53.7 µg/mL) | 125 µM (≈ 53.7 µg/mL) | 125 µM (≈ 53.7 µg/mL) | > 500 µM | > 500 µM | > 500 µM | > 500 µM | > 500 µM | > 500 µM | > 500 µM | > 500 µM | – |
| C[C@@H](NC(=O)c1cc(Cl)ccc1O)C(=O)Nc1ccc(Cl)cc1 [8h] | 0.4308 | 8 µM (≈ 2.83 µg/mL) | 16 µM (≈ 5.65 µg/mL) | 125 µM (≈ 44.2 µg/mL) | 125 µM (≈ 44.2 µg/mL) | 125 µM (≈ 44.2 µg/mL) | 250 µM (≈ 88.3 µg/mL) | > 125 µM | > 125 µM | > 125 µM | > 125 µM | > 500 µM | > 500 µM | > 500 µM | > 500 µM | > 500 µM | > 500 µM | > 500 µM | > 500 µM | – |
| CC(C)[C@H](NC(=O)c1cc(Cl)ccc1O)C(=O)Nc1ccc(Cl)cc1 [8i] | 0.6371 | 32 µM (≈ 12.2 µg/mL) | 32 µM (≈ 12.2 µg/mL) | 62.5 µM (≈ 23.8 µg/mL) | 62.5 µM (≈ 23.8 µg/mL) | 62.5 µM (≈ 23.8 µg/mL) | 62.5 µM (≈ 23.8 µg/mL) | > 125 µM | > 125 µM | > 125 µM | > 125 µM | 7.81 µM (≈ 2.98 µg/mL) | 15.6 µM (≈ 5.96 µg/mL) | 15.6 µM (≈ 5.96 µg/mL) | 15.6 µM (≈ 5.96 µg/mL) | 31.2 µM (≈ 11.9 µg/mL) | 250 µM (≈ 95.3 µg/mL) | 31.2 µM (≈ 11.9 µg/mL) | 150 µM (≈ 57.2 µg/mL) | – |
| CC(C)[C@@H](NC(=O)c1cc(Cl)ccc1O)C(=O)Nc1ccc(Cl)cc1 [8j] | 0.6125 | 32 µM (≈ 12.2 µg/mL) | 32 µM (≈ 12.2 µg/mL) | 62.5 µM (≈ 23.8 µg/mL) | 62.5 µM (≈ 23.8 µg/mL) | 62.5 µM (≈ 23.8 µg/mL) | 62.5 µM (≈ 23.8 µg/mL) | > 125 µM | > 125 µM | 62.5 µM (≈ 23.8 µg/mL) | 62.5 µM (≈ 23.8 µg/mL) | 7.81 µM (≈ 2.98 µg/mL) | 7.81 µM (≈ 2.98 µg/mL) | 7.81 µM (≈ 2.98 µg/mL) | 7.81 µM (≈ 2.98 µg/mL) | 31.2 µM (≈ 11.9 µg/mL) | 125 µM (≈ 47.7 µg/mL) | 250 µM (≈ 95.3 µg/mL) | 500 µM (≈ 191 µg/mL) | MIC ([7]; read-out: activity against methicillin-resistant Staphylococcus aureus (MIC)): 7.81 µM (≈ 2.98 µg/mL) |
| O=C(CNC(=O)c1cc(Cl)ccc1O)Nc1ccc(Cl)c(Cl)c1 [8m] | 0.4971 | 125 µM (≈ 46.7 µg/mL) | 500 µM (≈ 187 µg/mL) | 62.5 µM (≈ 23.4 µg/mL) | 500 µM (≈ 187 µg/mL) | 125 µM (≈ 46.7 µg/mL) | 500 µM (≈ 187 µg/mL) | > 125 µM | > 125 µM | > 125 µM | > 125 µM | > 125 µM | > 125 µM | > 125 µM | > 125 µM | > 125 µM | > 125 µM | > 125 µM | > 125 µM | – |
| C[C@H](NC(=O)c1cc(Cl)ccc1O)C(=O)Nc1ccc(Cl)c(Cl)c1 [8n] | 0.6698 | 32 µM (≈ 12.4 µg/mL) | 32 µM (≈ 12.4 µg/mL) | 32 µM (≈ 12.4 µg/mL) | 62.5 µM (≈ 24.2 µg/mL) | 62.5 µM (≈ 24.2 µg/mL) | 500 µM (≈ 194 µg/mL) | > 125 µM | > 125 µM | > 125 µM | > 125 µM | > 500 µM | > 500 µM | > 500 µM | > 500 µM | > 500 µM | > 500 µM | > 500 µM | > 500 µM | – |
| O=C(O)c1cn(C2CC2)c2cc(N3CCNCC3)c(F)cc2c1=O [CPF, ciprofloxacin, reference compound] | – | – | – | – | – | – | – | – | – | – | – | – | – | 500 µM (≈ 166 µg/mL) | 500 µM (≈ 166 µg/mL) | 250 µM (≈ 82.8 µg/mL) | 250 µM (≈ 82.8 µg/mL) | – | – | – |
| OC(Cn1cncn1)(Cn1cncn1)c1ccc(F)cc1F [FLU, fluconazole, reference compound] | – | – | – | – | – | – | – | 0.12 µM (≈ 0.0368 µg/mL) | > 125 µM | 1.95 µM (≈ 0.597 µg/mL) | 3.91 µM (≈ 1.2 µg/mL) | – | – | – | – | – | – | – | – | – |
| NNC(=O)c1ccncc1 [INH, isoniazid, reference compound] | – | 0.5 µM (≈ 0.0686 µg/mL) | 0.5 µM (≈ 0.0686 µg/mL) | > 250 µM | > 250 µM | > 250 µM | > 250 µM | – | – | – | – | – | – | – | – | – | – | – | – | – |
| CC1(C)S[C@@H]2[C@H](NC(=O)Cc3ccccc3)C(=O)N2[C@H]1C(=O)O [PEN, penicillin G, reference compound] | – | – | – | – | – | – | – | – | – | – | – | 0.24 µM (≈ 0.0803 µg/mL) | 0.24 µM (≈ 0.0803 µg/mL) | 125 µM (≈ 41.8 µg/mL) | 125 µM (≈ 41.8 µg/mL) | 31.6 µM (≈ 10.6 µg/mL) | 125 µM (≈ 41.8 µg/mL) | 7.81 µM (≈ 2.61 µg/mL) | 15.6 µM (≈ 5.22 µg/mL) | – |
